Entries after “also recorded” stand apart in the source; their conditions may differ.
Key:
Format in all cases: in vivo, human
recurrent glioblastoma [1] = test: L19-TNFα treatment of patients with recurrent glioblastoma (tumor perfusion, necrosis, disease status)
Protocol: Three patients with recurrent glioblastoma were treated with L19-TNFα at a dose level of 10 μg/kg. […] This is surprising considering that the Progression Free Survival (PFS) for recurrent glioblastoma is 1.5 months.

recurrent glioblastoma [2] = test: Immunohistochemistry of tumor tissue before and after treatment with L19-TNFα; details: re-section tissue after treatment vs tissue from first surgery, patient with progressive disease
[3] = tested on: glioblastoma (WHO grade IV) at first recurrence; test: L19-TNF plus lomustine in a patient with glioblastoma at first recurrence, contrast enhanced MRI; details: one patient; 13 μg/kg L19-TNF iv on Days 1, 3, 5, 22, 24, 26 with 90 mg/m2 lomustine on Day 1; 40 days after baseline image
Protocol: This example describes the effect of a combination therapy on a patient with recurrent glioblastoma after chemoradiotherapy followed by temozolomide maintenance therapy.
A patient with glioblastoma (WHO grade IV) at first recurrence, received 90 mg/m2 lomustine (CCNU) on Day 1. Additionally, this patient received 13 μg/kg L19-TNF, by iv infusion, on Days 1, 3, 5, 22, 24 and 26.
The patient had been pretreated for newly diagnosed glioblastoma with resection and chemoradiotherapy followed by temozolomide maintenance therapy.
Contrast enhanced MRI was performed initially, before receiving the lomustine and L19-TNF (baseline image; see FIG. 3A) and 40 days after baseline image (FIG. 3B).

[4] = three patients, 10 μg/kg, twenty-four hours after the infusion

L19-TNFα
disease status, one patient (recurrent glioblastoma [1]; 10 μg/kg, one of three patients, after three months): progressive disease
disease status, two patients (recurrent glioblastoma [1]; 10 μg/kg, two of three patients, at six months after treatment, with increasing area of necrosis in the tumor region): stable disease
overall tumor perfusion (recurrent glioblastoma [1]; [4]): decrease
tumor necrosis (recurrent glioblastoma [1]; [4]): emerging tumor necrosis
glioma lesions (size) (recurrent glioblastoma [1]; two patients, FIG. 1A, after two and six cycles): gradually shrink
necrotic core of the lesions (recurrent glioblastoma [1]; two patients, FIG. 1A, before vs after treatment): expanding necrotic core
cleaved caspase-3 levels in tumor (recurrent glioblastoma [2]): increase; also recorded: increased levels
tumor-infiltrating CD4 T-cells (recurrent glioblastoma [2]): significant increase
tumor-infiltrating CD8 T-cells (recurrent glioblastoma [2]): significant increase
tumour size on contrast enhanced MRI [3]: substantially reduced
